The values that follow come from US8309599B2, “Synthesis of FR901464 and analogs with antitumor activity” (University of Pittsburgh-Of The Commonwealth System of …, priority 2006, dated 2012).

SMILES strings stand for the structures. Where two headings read alike, the source gives them in different places. Bounds are passed on as bounds.

For data set [1], the system named is H1299. In kind it is cell-based. Particulars: Homo sapiens, NCI-H1299; H1299, 3 to 5 days.
For data set [2], the system named is A549. It counts as cell-based. Particulars: Homo sapiens; A549, 3 to 5 days.
Data set [3] relates to MDA-MB-231. In kind it is cell-based. As to conditions: Homo sapiens; MDA-MB-231, 3 to 5 days.
The subject of data set [4] is MCF-7. Put plainly: cells. Particulars: Homo sapiens, MCF7.
The subject of data set [5] is HeLa. In kind it is cell-based. Particulars: Homo sapiens, 3 to 5 days.
The test system of data set [6] is HCT116. In kind it is cell-based. Particulars: Homo sapiens, HCT-116; HCT116, 3 to 5 days.
Data set [7] concerns DU145. In kind it is cell-based. Particulars: Homo sapiens, DU-145; DU145, 3 to 5 days.
The test system of data set [8] is PC-3. It counts as cell-based. Particulars: Homo sapiens; PC-3, 3 to 5 days.
Data set [9] relates to HeLa cells. Put plainly: High-content analysis of mitotic arrest and microtubule perturbation. Particulars: HeLa cells treated for 21 h. In kind it is cell-based.
In data set [10] the test system is mRNA levels of p53, p21, c-myc, and E2F-1. Particulars: MCF-7 cells at 20 nM; cited from earlier work.
Data set [11] deals with MCF-7 cells. Nature of the data set: MCF-7 cell count with hemacytometer and trypan blue. As to conditions: for viability at 0.01 µM: Homo sapiens; for percent of cells present: 200 nM positive control.
Method: MCF-7 cells were used in this experiment.
Cell proliferation was measured by manual counting using a hemacytometer by trypsinizing and staining with trypan blue.
For data set [12] the following is noted: mouse model; cited from earlier work.
Data set [13] has as its system DC3F transformed Chinese hamster cells. Put plainly: Antiproliferative activity in parental cells. It counts as cell-based. As to conditions: for GI50: Cricetulus griseus, DC3F, read-out: average GI50 DC3F; for growth inhibition of parental DC3F cells: in words.
The subject of data set [14] is MCF-7 cells. Particulars: read-out: LC50 (apparent apoptosis); cited from earlier work.
Data set [15] relates to MCF-7. Particulars: MCF-7, 5-day assay.
Data set [16] relates to A-549 lung cancer cells. Put plainly: High-content selectivity study, cancer cells.
Data set [17] has as its system IMR-90 human lung fibroblasts. Nature of the data set: High-content selectivity study, normal cells.
In data set [18] the test system is MCF-7 cells. Put plainly: Reversibility test (drug washout, MTS). As to conditions: 1 nM, washout at intervals, read at 72 h. In kind it is cell-based. How it is done:
(§1) One concentration was used in each experiment for all times examined. […] At the desired time intervals, the media containing the drug was removed, the wells were washed 5 times with new media and 200 μL of new media containing 1% DMSO was added.
(§2) All cells were treated at the same time meayamycin at 1 nM concentration. At the given time interval, the drug-containing media was removed and replaced with fresh media. Cell proliferation was measured at the last time interval (72 h).

Data set [19] has as its system HeLa cells. Put plainly: Reversibility test (drug washout, MTS). It counts as cell-based. Particulars: preliminary result. How it is done:
as §1, §2

For data set [20], the system named is A549 cells. Put plainly: Reversibility test (drug washout, MTS). In kind it is cell-based. Particulars: 1 nM, washout at intervals, read at 72 h. As for the experimental part: as §1, §2
Data set [21] has as its system multidrug resistant subline VCRd5L. Nature of the data set: Antiproliferative activity in multidrug resistant cells. It counts as cell-based, Chinese hamster. Particulars: for GI50: Cricetulus griseus, read-out: average GI50 VCRd5L.
Where [22] appears, read: MCF7, 24 h, read-out: Percent Viable Cells, 10 nM, 24 hours.
Where [23] appears, read: MCF7, 48 h, read-out: Percent Viable Cells, 10 nM, 48 hours.

On to `CC(/C=C/[C@H]1OC(C)(C)C[C@@]2(CO2)[C@@H]1O)=C\C[C@@H]1O[C@H](C)[C@H](NC(=O)/C=C\[C@H](C)O)C[C@@H]1C` [4′-desacetyl meayamycin], for which the GI50 – broadly, the concentration at which growth is held to half of that of the control – in data set [1] was determined as 1 nM; in data set [2], 0.74 nM; in [3], 0.35 nM; in data set [4], 0.48 nM; in [5], 1 nM.
Take `CC(=O)O[C@@H](C)/C=C\C(=O)N[C@@H]1CC[C@H](C/C=C(C)/C=C/[C@H]2OC(C)(C)C[C@@]3(CO3)[C@@H]2O)O[C@@H]1C` [12-desmethyl meayamycin]: the GI50 in data set [1] was 2.8 nM; in [2] it was 1 nM; in [6] it was 2.2 nM; in data set [7] it was 3.5 nM; in data set [8], 1.6 nM; in [3], 0.7 nM. The compound further came in with a 50% growth inhibitory concentration (GI50) in data set [4] of 0.3 nM.
For `CC(=O)O[C@@H](C)/C=C\C(=O)N[C@@H]1C[C@H](C)[C@H](C/C=C(C)/C=C/[C@H]2O[C@](C)(O)C[C@@]3(CO3)[C@@H]2O)O[C@@H]1C` [FR901464], the mitotic arrest entry in data set [9] is recorded as “neither FR 901464 nor meayamycin were mitotic arresters”. In addition, the “mRNA levels of p53, p21, c-myc, and E2F-1” value in data set [10] is listed as “lowers the mRNA levels”. For the same compound, in data set [11] (setting [22]), the viability at 0.01 µM is 81%. The viability at 0.01 µM in data set [11] (setting [23]) was found to be 49%. Besides, the “antitumor activity, active dose” value in data set [12] is 0.056 to 0.18 mg/kg. Further, in data set [13], the concentration for 50% growth inhibition (GI50) stood at 7.49 ± 1.26 nM and the “growth inhibition of parental DC3F cells” value is reported as “potently inhibited the growth”. In addition, in [14], the CC50 was 0.5 nM.
`CC(=O)O[C@@H](C)/C=C\C(=O)N[C@@H]1CO[C@H](C/C=C(C)/C=C/[C@H]2OC(C)(C)C[C@@]3(CO3)[C@@H]2O)O[C@@H]1C` [acetal meayamycin] had a concentration for 50% growth inhibition (GI50) in data set [4] of 2.5 nM.
Turning to `CC(/C=C/[C@H]1OC(C)(C)C[C@@]2(CO2)[C@@H]1O)=C\C[C@@H]1O[C@H](C)[C@H](NC(=O)/C=C\[C@H](C)OC(=O)N2CCOCC2)C[C@@H]1C` [meayamycin B, (2Z,4S)-4-[(morpholinylcarbonyl)oxy]-N-[(2R,3R,5S,6S)-tetrahydro-6-[(2E,4E)-5-[(3R,4R,5R)-4-hydroxy-7,7-dimethyl-1,6-dioxaspiro[2.5]oct-5-yl]-3-methyl-2,4-pentadien-1-yl]-2,5-dimethyl-2H-pyran-3-yl]-2-pentenamide], the “times more potent than meayamycin in cultured cells” value in data set [15] worked out at 2 times.
Consider `CC(=O)O[C@@H](C)/C=C\C(=O)N[C@@H]1C[C@H](C)[C@H](C/C=C(C)/C=C/[C@H]2OC(C)(C)C[C@@]3(CO3)[C@@H]2O)O[C@@H]1C` [meayamycin], for which the cell loss entry in [16] (10 nM, 24 hours, compared with normal cells) is “more pronounced cell loss”. In addition, in [16] (24 h), the nuclear morphology entry was “did not cause nuclear fragmentation but instead enlarged nuclei”. Also, the p53 induction result is “p53 induction” in data set [16] (24 h) and “magnitude of response was smaller” in data set [17] (24 h). The caspase cleavage entry in data set [16] (24 h, some experiments) is on record as “low level of caspase cleavage”. The “growth inhibition of A549 cells” value in data set [16] (FIG. 4) was “inhibits the growth of A549 cells”. In addition, the concentration for 50% growth inhibition (GI50) was 0.091 nM in data set [1]; 0.11 nM in data set [2]; 0.044 nM in data set [6]; 0.47 nM in data set [7]; 0.058 nM in data set [8]; 0.024 nM in data set [3]. In addition, the GI50 in data set [4] turned out to be 0.01 nM; in [5], 0.24 nM; in data set [13], 0.46 ± 0.09 nM; in [21], 0.71 ± 0.27 nM. The mitotic arrest entry in [9] is given as “neither FR 901464 nor meayamycin were mitotic arresters”. The “growth inhibition of normal lung cells (IMR-90)” value in [17] (FIG. 5) is “only mildly”. The “Percent Viable Cells” value in [11] (10 nM, 48 hours, listed as Compound IX, 0.01 µM) worked out at 26%. Further, the viability at 0.01 µM in data set [11] (setting [22]) was found to be 46%; in data set [11] (setting [23]), 27%. For the same compound, the figures for the “reversibility of growth inhibition” value in [18], in data set [19] and in data set [20] were “irreversibly inhibits the growth”, “reversibly inhibits the growth” and “irreversibly inhibits the growth”, respectively. Further, the “growth inhibition of parental DC3F cells” value in data set [13] is “active in the subnanomolar range”. In addition, the “activity in the multidrug resistant cells” value in [21] is “retained picomolar activity”. The fold resistance in data set [21] worked out at 1.5 fold.
For `CC(=O)O[C@H]1C(=O)[C@@]2(C)[C@H]([C@H](OC(=O)c3ccccc3)[C@]3(O)C[C@H](OC(=O)[C@H](O)[C@@H](NC(=O)c4ccccc4)c4ccccc4)C(C)=C1C3(C)C)[C@]1(OC(C)=O)CO[C@@H]1C[C@@H]2O` [paclitaxel], the mitotic arrest result in data set [9] is listed as “caused mitotic arrest”. Besides, the “percent of cells present” value turned out to be 70% in data set [11] (24 hour) and 52% in [11] (48 hour). Further, the 50% growth inhibitory concentration (GI50) in data set [13] (average ± SD (n)) was determined as 45.4 ± 11.3 nM; in [21] (average ± SD (n)) it was 2680 ± 109 nM. The “fold resistant (VCRd-5L cells)” value in [21] is on record as 60 fold.
For `CC[C@]1(O)C[C@H]2CN(CCc3c([nH]c4ccccc34)[C@@](C(=O)OC)(c3cc4c(cc3OC)N(C=O)[C@H]3[C@@](O)(C(=O)OC)[C@H](OC(C)=O)[C@]5(CC)C=CCN6CC[C@]43[C@@H]65)C2)C1` [vincristine], the mitotic arrest entry in [9] is listed as “caused mitotic arrest”. Moreover, the GI50 was 18.8 ± 16.2 nM in data set [13] (average ± SD (n)) and over 5000 nM in data set [21] (average ± SD (n)). Moreover, the “fold resistant (VCRd-5L cells)” value in data set [21] is listed as over 250 fold.
